{
  "source": "patent US8772318B2",
  "about": "“Methods and compositions related to targeting monoacylglycerol lipase” (The Scripps Research Institute, priority 2008, dated 2014)",
  "key": {"[1]": {"system": "human cancer cell lines (C8161, SKOV3, 231MFP, MUM2C, OVCAR3)", "experiment": "Cell migration assay (Transwell)", "type": "cell-based", "conditions": "for migration of MUM2C and OVCAR3 cells / migratory activity of shMAGL or JZL184-treated MAGL-OE cancer cells: 20 μM; for impaired migration of shMAGL cancer cells: 100 nM; for migration of cancer cells: 100 μM, 4 hr preincubation and coincubation with migration", "description": "Cell migration, cell survival, and invasion studies. Migration assays were performed in Transwell chambers (Corning) with 8 μm pore-sized membranes coated with 10 μg/ml collagen for 4 h at 37° C. A total of 24 hr before the start of the migration assay, cancer cell lines were plated at a concentration of 1×10^6 cells per 6 cm dish. At the start of the migration assay, cells were harvested by washing two times with PBS and were then serum starved in serum-free media for 4 hr. Inhibitor, lipid or vehicle (0.1% DMSO) were preincubated with the cells during this 4 h time. Serum-starved cells were trypsinized, spun at 1400×g for 3 min, resuspended, and counted. 50,000 cells were seeded in the upper chamber of the transwells in 200 μl serum-free media (containing inhibitor, lipid or vehicle). Inhibitor, lipid or vehicle was also added to the lower chamber, and cells were allowed to migrate for 5 h (for C8161 and 231MFP cells) or 20 hr (SKOV3, MUM2C and OVCAR3 cells). The filters were then fixed and stained with Diff-Quik (Dade Behring). Cells that had not migrated through the chamber were removed with a cotton ball. The cells that migrated were counted at a magnification of 400×, and 4 fields were independently counted from each migration chamber. An average of cells in 4 fields for one migration chamber represents n=1."}, "[2]": {"system": "human cancer cell lines (C8161, SKOV3, 231MFP, MUM2C, OVCAR3)", "experiment": "Lipid measurements in cancer cells", "type": "cell-based", "description": "Pharmacological inhibition of MAGL in cancer cells. Pharmacological inhibition studies were conducted as described previously (Chiang et al., Chem. Biol. 13:1041-1050, 2006). Cancer cells were maintained in RPMI medium 1640 with 10% (v/v) fetal calf serum at 37° C. in a humidified atmosphere of 5% CO2/95% air. At 80% confluency, cells were trypsinized and counted using a hemocytometer, and 1×10^6 cells were plated in 6 cm dishes (subconfluent). […] After incubation for 4 hr, the cells were harvested and analyzed by ABPP or LC-MS.\nLipid measurements in cancer cells. Lipid measurements were conducted similarly to protocols described previously (Chiang et al., 2006; supra). Cancer cells were grown in serum-free media for 4 hrs to minimize the contribution of serum-derived lipids to the cellular profiles. The cells (1×10^6 cells/6 cm dish, 80% confluency) were washed with twice with phosphate buffer saline (PBS), isolated by centrifugation at 1,400×g, and dounce-homogenized in 4 ml of a 2:1:1 mixture of chloroform:methanol:Tris buffer. Samples were homogenized in the presence of the following synthetic standards: C12:0 MAGE (10 nmol), C15:0 FFA (10 nmol). Organic and aqueous layers were separated by centrifugation at 2000×g for 5 min and the organic layer was collected. The aqueous layer was acidified (for metabolites such as LPA) by adding 5% formic acid, followed by the addition of 2 ml chloroform. The mixture was vortexed, and the organic layers were combined, dried down under N2 and dissolved in 100 μl chloroform, of which 30 μl was analyzed by LC-MS.\nLC-MS analysis was performed by using an Agilent 1100 LC-MSD SL instrument. […] Mobile phase A was composed of a 95:5 ratio of water:methanol, and mobile phase B consisted of 2-propanol, methanol, and water in a 60:35:5 ratio. Solvent modifiers such as 0.1% formic acid and 0.1% ammonium hydroxide were used to assist ion formation as well as to improve the LC resolution in both positive and negative ionization modes, respectively. The flow rate for each run started at 0.1 ml/min for 5 min, to alleviate backpressure associated with injecting chloroform. The gradient started at 0% B and increased linearly to 100% B over the course of 45 min with a flow rate of 0.4 ml/min, followed by an isocratic gradient of 100% B for 17 min at 0.5 ml/min before equilibrating for 8 min at 0% B with a flow rate of 0.5 ml/min. MS analysis was performed with an electrospray ionization (ESI) source. The capillary voltage was set to 3.0 kV, and the fragmentor voltage was set to 100 V. The drying gas temperature was 350° C., the drying gas flow rate was 10 L/min, and the nebulizer pressure was 35 psi.\nLipidomic analysis was performed in both targeted and untargeted mode by LC-MS analysis. Standard lipid classes were quantitated by targeting using selected ion monitoring (SIM) (except for very high-abundance metabolites which were quantitated by untargeted analysis) and identities of metabolites were confirmed by coelution of metabolites with their respective standards and mass accuracy to within 10 ppm as determined with an accurate mass Agilent 6520 Accurate Mass QTOF-MS-MS. These lipids were quantified by measuring the area under the peak and were normalized to an internal standard (C12:0 MAGE in positive mode or C15:0 FFA in negative mode). […]"}, "MAGL [3]": {"target": "T1, MAGL (Homo sapiens, UniProt Q99685)", "T1 construct": "endogenous in cells; host or cells: human cancer lines (C8161, MUM2B, MUM2C, SKOV3, OVCAR3, 231MFP, MCF7)", "T1 sequence (Q99685 1-303)": "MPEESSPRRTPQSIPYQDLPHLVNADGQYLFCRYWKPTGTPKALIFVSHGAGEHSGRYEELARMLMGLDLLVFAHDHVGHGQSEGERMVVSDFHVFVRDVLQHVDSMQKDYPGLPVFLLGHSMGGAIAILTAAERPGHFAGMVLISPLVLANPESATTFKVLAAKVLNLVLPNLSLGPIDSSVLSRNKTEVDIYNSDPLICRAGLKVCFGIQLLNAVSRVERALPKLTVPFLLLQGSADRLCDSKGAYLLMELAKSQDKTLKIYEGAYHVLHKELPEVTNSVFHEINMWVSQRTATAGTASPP", "experiment": "shRNA knockdown of MAGL, activity by ABPP and C20:4 MAG hydrolysis", "type": "cell-based", "conditions": "aggressive cancer lines, ABPP", "description": "ABPP and hydrolytic activity assays of cancer cell proteomes. Identification and comparative quantitation of serine hydrolase activities from cancer cell proteomes by ABPP-MudPIT or gel-based ABPP was conducted as previously described using FP-biotin (5 μM) and FP-rhodamine (2 μM), respectively (Jessani et al., Proc. Natl. Acad. Sci. U.S.A 99:10335-10340, 2002; and Jessani et al., Nat. Methods 2:691-697, 2005). C20:4 MAG hydrolytic activity assays were performed as described previously (Blankman et al., Chem. Biol. 14:1347-1356, 2007). For ABPP experiments, cell lysate proteomes were treated with 2 μM FP-rhodamine for 30 min at room temperature (50 μl total reaction volume). Reactions were quenched with one volume of standard 4×SDS/PAGE loading buffer (reducing), separated by SDS/PAGE (10% acrylamide), and visualized in-gel with a Hitachi FMBio IIe flatbed fluorescence scanner (MiraiBio). Integrated band intensities were calculated for the labeled proteins and averaged from three independent cell samples to determine the level of each enzyme activity. IC50 values were determined from dose-response curves from three trials at each inhibitor concentration by using SigmaPlot 10.0. MAGL expression was also assessed by western blotting using standard procedures.\nRNA interference studies in human cancer cell lines. […]"}, "MAGL [4]": {"target": "T2, MAGL (Mus musculus, UniProt O35678)", "T2 construct": "from tissue; host or cells: mouse brain membrane fraction (C57Bl/6 mice for the in vivo studies)", "T2 sequence (O35678 1-303)": "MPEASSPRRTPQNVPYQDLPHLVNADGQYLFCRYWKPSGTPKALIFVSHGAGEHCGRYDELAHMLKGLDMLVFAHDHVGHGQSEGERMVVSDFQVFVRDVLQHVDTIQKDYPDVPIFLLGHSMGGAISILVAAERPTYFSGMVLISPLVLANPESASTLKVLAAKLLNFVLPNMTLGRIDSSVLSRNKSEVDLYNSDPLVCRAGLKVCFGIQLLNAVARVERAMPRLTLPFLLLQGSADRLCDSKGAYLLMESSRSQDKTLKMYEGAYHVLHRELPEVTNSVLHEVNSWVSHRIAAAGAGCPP", "experiment": "Competitive ABPP, mouse brain membrane proteome", "type": "biochemical", "source_text": "First, serine hydrolases are susceptible to covalent inactivation by specific chemical groups that show little or no cross-reactivity with other enzyme classes. […] Second, the functional state of serine hydrolases can be collectively profiled in native biological systems using activity-based protein profiling (ABPP) methods (Cravat et al., Annu Rev Biochem 77:383-414, 2008). ABPP of serine hydrolases uses reporter-tagged fluorophosphonates (FPs), which serve as general activity-based probes for this large and diverse enzyme class (Liu et al., Proc. Natl. Acad. Sci. U.S.A. 96:14694-9, 1999). When performed in a competitive mode, ABPP can serve as a powerful screen to evaluate the potency and selectivity of small-molecule enzyme inhibitors directly in complex proteomes. The screen can be performed as described in the art, e.g., Liu et al., Proc. Natl. Acad. Sci. U.S.A. 96:14694-9, 1999; Li et al., J. Am. Chem. Soc. 129:9594-5, 2007; Leung et al., Nat. Biotech. 21:687-91, 2003; and Greenbaum et al., Mol. Cell. Proteomics 1:60-68, 2002.\nCompetitive activity-based protein profiling (ABPP) experiments. In vitro inhibitor selectivity was examined using a competitive ABPP method as described in the art (e.g., Li et al., J. Am. Chem. Soc. 129:9594-5, 2007; and Leung et al., Nat. Biotech. 21:687-91, 2003). Briefly, mouse brain membrane proteomes, prepared as described herein, were diluted to 1 mg/ml in PBS and pre-incubated with varying concentrations of inhibitors (1 nM to 10 μM) for 30 min at 37° C. prior to the addition of a FP-rhodamine at a final concentration of 2 μM in a 50 μl of total reaction volume. After 30 min at room temperature, the reactions were quenched with 4×SDS-PAGE loading buffer, boiled for 5 min at 90° C., subjected to SDS-PAGE, and visualized in-gel using a flatbed fluorescence scanner.\nEvery 10 min, 50 ul of the reaction was removed and treated with FP-rhodamine (2 μM) for 2 min, quenched with 4×SDS-PAGE loading buffer, and boiled for 5 min at 90° C. The combined reactions were subjected to SDS-PAGE and visualized in-gel using a flatbed fluorescence scanner. The percentage activity remaining was determined by measuring the integrated optical density corresponding to the MAGL or FAAH bands and the results were fit to an exponential curve to determine the pseudo-first order rate constants."}, "[5]": {"conditions": "aggressive melanoma, ovarian, breast cancer cells"}},
  "note": "“Also recorded” adds a separate entry of the source.",
  "data": [
    {"compound": "CCCCCCCCCCCCCCCCCC(=O)O", "note": "[stearic acid]", "values": [
      {"measurement": "migration of MUM2C and OVCAR3 cells", "setting": "[1]; 4 h", "result": "increases the migration"},
      {"measurement": "migratory activity of shMAGL or JZL184-treated MAGL-OE cancer cells", "setting": "[1]; 4 h", "result": "fully restored their migratory activity"}
    ]},
    {"compound": "CCCCCCCCCCCCCCCC(=O)OC[C@@H](O)COP(=O)(O)O", "note": "[LPA]", "values": [
      {"measurement": "impaired migration of shMAGL cancer cells", "setting": "[1]; 4 hr", "result": "rescued the impaired migration"}
    ]},
    {"compound": "shMAGL2: short hairpin RNA oligonucleotide for MAGL, 5′-AGACTACCCTGGGCTTCCT-3′ (SEQ ID NO:2) (expressed or natural sequence)", "values": [
      {"measurement": "FFA levels in shMAGL cells", "setting": "[2]; [5]", "result": "corresponding reductions"},
      {"measurement": "MAG levels in shMAGL cells", "setting": "[2]; [5]", "result": "significant elevations"},
      {"measurement": "other serine hydrolase activities", "setting": "MAGL [3]", "result": "unaffected"}
    ]},
    {"compound": "CCCCCCCCCCCCCCCC(=O)O", "note": "[palmitic acid]", "values": [
      {"measurement": "migration of MUM2C and OVCAR3 cells", "setting": "[1]; 4 h", "result": "increases the migration"},
      {"measurement": "migratory activity of shMAGL or JZL184-treated MAGL-OE cancer cells", "setting": "[1]; 4 h", "result": "fully restored their migratory activity"}
    ]},
    {"compound": "COc1ccc(CN2CCNCC2)c(OC)c1OC", "note": "[trimetazidine]", "values": [
      {"measurement": "migration of cancer cells", "setting": "[1]", "result": "did not affect migration"}
    ]},
    {"compound": "COc1ccc(C(=O)c2c(C)n(CCN3CCOCC3)c3cc(I)ccc23)cc1", "note": "[AM630]", "values": [
      {"measurement": "FFA levels in shControl and shMAGL cancer cells", "setting": "[2]; antagonist 1 μM, 4 hr", "result": "unchanged"},
      {"measurement": "migratory defect in shMAGL cancer cells", "setting": "[1]; antagonist 1 μM, 4 hr", "result": "not rescued"}
    ]},
    {"compound": "CCCCC[C@H](O)/C=C/[C@H]1[C@H](O)CC(=O)[C@@H]1C/C=C\\CCCC(=O)O", "note": "[PGE2, prostaglandin E2]", "values": [
      {"measurement": "impaired migration of shMAGL cancer cells", "setting": "[1]; 4 hr", "result": "rescued the impaired migration"}
    ]},
    {"compound": "COc1ccc(C(O)(c2ccc(OC)cc2)C2CCN(C(=O)Oc3ccc([N+](=O)[O-])cc3)CC2)cc1", "note": "[JZL175]", "values": [
      {"measurement": "selectivity for MAGL over FAAH and ABHD6 (competitive ABPP)", "setting": "MAGL [4]", "result": "selectivity for MAGL over both FAAH and ABHD6; also recorded: no or greatly reduced inhibitory activity on FAAH as well as ABHD6"}
    ]},
    {"compound": "pertussis toxin", "values": [
      {"measurement": "enhanced migratory activity of MAGL-OE cancer cells", "setting": "[1]; 100 ng/ml, 4 h", "result": "completely blocked"}
    ]},
    {"compound": "CCOC(=O)[C@@]1(CCCCCCOc2ccc(Cl)cc2)CO1", "note": "[etomoxir]", "values": [
      {"measurement": "FFA levels in cancer cells", "setting": "[2]; 100 μM, 4 hr, exception C20:4 FFA, elevated in C8161 and SKOV3 cells", "result": "did not alter FFA levels"},
      {"measurement": "migration of cancer cells", "setting": "[1]", "result": "did not affect migration"}
    ]}
  ]
}
